Results from patent US20140088052A1, “CHALCONE DERIVATIVES AS NRF2 ACTIVATORS” (THE JOHNS HOPKINS UNIVERSITY, priority 2011, published 2014).

Columns and labels:
[1] = system: chemotherapy-induced neutropenia; test: Cyclophosphamide-induced reversible neutropenia in mice; assay type: in vivo; conditions: cyclophosphamide i.p. day 0 and day 5, treatment every 48 h, compared to vehicle
Procedure: At indicated time periods, a cohort of mice was sacrificed. Peripheral blood was collected and differential blood cell count was analyzed using a Hemavet 950S.

[2] = system: Nrf2; test: Concentration and time-course studies of Nrf2-driven antioxidant genes in Beas-2B cells; assay type: cell-based, human
Procedure: The expression of Nrf2-regulated genes GCLM, HO1, and NQO1 was analyzed in the tissues by qRT-PCT as a surrogate marker of Nrf2 activity. β-actin was used for normalization. Data are representative of three independent experiments. […] The expression of Nrf2-regulated genes GCLM, HO1, and NQO1 was analyzed in the tissues by aRT-PCR. β-actin was used for normalization. Data are representative of three independent experiments. Values shown are mean±SD of triplicate wells (P≦0.05); […] […] Total RNA was extracted from cells/tissue using Qiagen RNeasy kit (Qiagen Corporation, Valencia, Calif.) and reverse transcription was performed by using random hexamers and MultiScribe reverse transcriptase according to the manufacturer's recommendations (Applied Biosystems, Foster City, Calif., USA). Quantitative real-time RT-PCR analyses of Nrf2, NQO1, HO1, and GCLM were performed by using Assay-on-Demand primers and probe sets from Applied Biosystems. Assays were performed using the ABI 7000 Taqman system (Applied Biosystems, Foster City, Calif.). β-actin was used for normalization.

[3] = system: Nrf2; test: Pharmacodynamic markers of Nrf2 activity (NQO1, HO-1, GCLM) in irradiated mice; assay type: in vivo; conditions: irradiated (6.9Gy) mice, day 12, compared to vehicle
Procedure: NQO1, HO-1 and GCLM levels were analyzed in bone marrow (FIG. 12A), lung (FIG. 12B) and small intestine (FIG. 12C) harvested at day 12 from irradiated (6.9Gy) mice treated with vehicle or drug.

[4] = system: Nrf2; test: Nrf2-regulated gene expression with or without N-acetyl-cysteine in Beas-2B cells; assay type: cell-based, human; conditions: 10 μM with NAC 10 mM, 24 h
Procedure: Cells were harvested 24 h after the treatment and the Nrf2-driven expression of NQO1, HO-1, and GCLM was quantified. β-actin was used for normalization. Data are representative of three independent experiments. Values shown are mean±SD of triplicate wells (P≦0.05);
The activation of Nrf2 by various electrophiles and compounds that are Michael acceptors is attributed to changes in ROS production and or redox environment and or direct cysteine modification in Keap1. Nguyen, T., et al., The Nrf2-antioxidant response element signaling pathway and its activation by oxidative stress. J. Biol. Chem. 2009, 284, 13291-13295; McMahon, M., et al., Keap1 perceives stress via three sensors for the endogenous signaling molecules nitric oxide, zinc, and alkenals. Proc. Natl. Acad. Sci. U.S.A. 2010, 107, 18838-18843. Whether 2b activates Nrf2 by generating ROS or redox changes also was examined.

[5] = system: OVA-induced asthma; test: OVA-induced asthma mouse model; assay type: in vivo; design: dose or concentration left out as unconfirmed; conditions: mice, every other day during sensitization and challenge, prophylactic mode
Procedure: Mice were sensitized by intraperitoneal injection (day 0, day 14), and challenged intranasally, with OVA (day 21 to day 24). […] 24 h after the last dose of OVA challenge, airway inflammation (FIG. 16A) and airway hyperresponsiveness (AHR) (FIG. 16B) were assessed.

[6] = system: Beas-2B cells; test: Cell viability / cytotoxicity (MTT assay) in Beas-2B cells; assay type: cell-based, human; conditions: 24 h, DMSO = 100
Procedure: Concurrent with the gene expression analysis, the cytotoxicity of the chalcone derivatives was determined using the MTT assay.
Mad. Chem. 2007, 15, 2952-2962. […] Four hours before the end of incubation, the medium was removed and 100 μL of MTT (5 mg/mL in serum free medium) was added to each well. The MTT was removed after 4 h, cells were washed with PBS, and 100 μL DMSO was added to each well to dissolve the water-insoluble MTT-formazan crystals. The absorbance was recorded at 570 nm in a plate reader (Molecular Devices, Sunnyvale, Calif.).

[7] = system: mice subjected to total body irradiation (TBI); test: Survival of mice after total body irradiation; assay type: in vivo, mice (C57BL/6); conditions: 5 more doses every 48 h; for survival: 30 days
Procedure: To determine whether 2-trifluoromethyl-2′-methoxychalone, a potent Nrf2 activator, improves survival after lethal irradiation, irradiated mice were treated with 2-trifluoromethyl-2′-methoxychalone (200 μmol/kg body weight) or vehicle (100% PEG) by gavage. […] (LD70/30; 70% death in 30 days).
To investigate the therapeutic efficacy of compound 2b to mitigate mortality and the hematopoietic syndrome, mice were subjected to total body irradiation (TBI). C57BL/6 (8 wks, males,) were fed chow pellets ad libitum and supplied non-acidic water. Mice were subjected to TBI (0.65 Gy/min) in an AECL Gamma cell 40 irradiator (Atomic Energy, Canada).
Mortality was monitored every day for 30 days.
Mortality was monitored every day for 30 days. […] The percent mortality of mice treated with the vehicle at 1 h or 6 h after radiation was 100% (data not shown).

[8] = system: mice subjected to total body irradiation (TBI); test: Hematopoietic recovery after total body irradiation; assay type: in vivo
Procedure: At indicated time periods, a cohort of mice was sacrificed. Peripheral blood was collected by heart puncture at the indicated days and differential blood cell count was analyzed using Hemavet 950FS(P<0.05, n=3 per group). Femur bones were fixed, decalcified sectioned along the sagittal plan and stained with hematoxylin and eosin for analyzing marrow cellularity.

[9] = Beas-2B cells, 10 μM, 6 h after treatment

COc1ccccc1C(=O)/C=C/c1ccccc1C(F)(F)F [Compound 2b, (E)-1-(2-methoxyphenyl)-3-(2-(trifluoromethyl)phenyl)prop-2-en-1-one]
duration of neutropenia [1]: significantly reduced the duration of neutropenia | expression of HO-1 compared to sulforaphane ([2]; Beas-2B cells, 10 μM): 6 fold | expression of NQO1 over time ([2]; Beas-2B cells, 10 μM, 6, 12, 24 and 48 h): highest at 24 h and remained significantly elevated even at 48 h | highest induction of GCLM [2, 9]: approximately 7 fold | highest induction of HO-1 [2, 9]: approximately 150 fold | expression of GCLM and HO-1 at 48 h ([2]; Beas-2B cells, 10 μM, 48 h): comparable to vehicle by 48 h | increase in the expression of GCLM ([2]; Beas-2B cells, 20 μM, 24 h): approximately 5 fold | increase in the expression of NQO1 ([2]; Beas-2B cells, 20 μM, 24 h): ~10 fold | Nrf2-regulated gene expression (GCLM, NQO1, HO1) ([2]; Beas-2B cells, 2.5, 5, 10, 20 μM, 24 h): significantly increased the Nrf2-regulated gene expression in a concentration-dependent manner | Nrf2 regulated antioxidants (NQO1, HO-1, GCLM) in BM-MNC, gut and lung [3]: significantly elevated | expression of GCLM, NQO1 and HO1 in the presence of NAC [4]: potentially increase the expression of Nr2-regulated antioxidant genes in the presence of NAC | allergen-induced asthma (airway inflammation and airway hyper-responsiveness) [5]: protected the mice from allergen-induced asthma | % Cell Viability [6]: 100.9% | median survival ([7]; 7.3 Gy TBI, treatment started 24 hours after irradiation, 200 μmol/kg by gavage, vehicle approximately 15 days): 26 days | survival ([7]; TBI 6.9 Gy, oral 400 mg/Kg started 24 h after TBI): 90% | survival ([7]; TBI 7.1 Gy, oral 400 mg/Kg started 24 h after TBI): 60% | survival ([7]; TBI 7.3 Gy, oral treatment started 1 h after TBI): approximately 60% | survival ([7]; TBI 7.3 Gy, oral treatment started 6 h after TBI): ~50% | bone marrow cellularity (H&E staining) ([8]; 6.9 Gy TBI, day 7 and day 20, compared to vehicle): greater marrow cellularity | WBC, RBC and platelets on day 22 post-irradiation ([8]; 6.9 Gy TBI, oral treatment from 24 h after): significant increase in WBC, red blood cells (RBC) and platelets | white blood cells, neutrophils and lymphocytes post-irradiation ([8]; 6.9 Gy TBI, oral treatment from 24 h after, compared to vehicle): early increase in white blood cells (WBC), neutrophils and lymphocytes | hematopoietic reconstitution (CBC analysis, WBC) ([8]; 7.3 Gy TBI, treatment 24 hours after, 30 days): significant recovery of WBC
